Data on 32 molecules can be found in patent publication US10005767B2, “Compositions and methods for inhibition of the JAK pathway” (Rigel Pharmaceuticals, Inc., priority 2009, dated 2018).

Usually IC50 stands for the point on the concentration scale where inhibition reaches its midpoint.

Where a name gives a salt, the structure may show the parent alone. Some results are limits rather than exact numbers.

The first assay concerns human primary T-cells, IL-2 stimulated proliferation (JAK-1 and JAK-3 dependent; reported as JAK3 activity). Briefly: Human primary T-cell proliferation stimulated by IL-2 (Example 3). It counts as cell-based. The note with it: Homo sapiens, T-cell, tested under conditions described in Example 3 (IL-2 stimulated human primary T-cell proliferation); read-out: ability to inhibit JAK3 activity, IC50 range (Table V). The method in brief:
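Peripheral-blood human T-cells pre-activated via TCR/CD28, IL-2-starved overnight, then cultured 72 h at 37 °C with compound in Yssel's medium containing IL-2 (80 U/mL in cell suspension). Proliferation read as viable-cell ATP by CellTiter-Glo luminescence; reduction versus control taken as JAK pathway inhibition.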
`COc1cc(Nc2ncc(C)c(Nc3ccc4oc(=O)[nH]c4c3)n2)cc(C(C)NC2CC2)c1` (centres unmarked) [Compound I-233, 5-(2-(3-(1-(cyclopropylamino)ethyl)-5-methoxyphenylamino)-5-methylpyrimidin-4-ylamino)benzo[d]oxazol-2(3H)-one]: the IC50 is under 500 nM.
`COc1ccc(Nc2ncc(C)c(Nc3ccc4oc(=O)[nH]c4c3)n2)cc1Cl` [Compound I-496, 5-[2-(3-Chloro-4-methoxy-phenylamino)-5-methyl-pyrimidin-4-ylamino]-3H-benzooxazol-2-one]: the 50% inhibitory concentration (IC50) is under 500 nM.
The same measure, in the same setting: in the case of `Cc1cnc(Nc2ccc3c(c2)NC(=O)CCC3)nc1Nc1ccc2oc(=O)[nH]c2c1` [IV-23, 5-(5-methyl-2-(2-oxo-2,3,4,5-tetrahydro-1H-benzo[b]azepin-8-ylamino)pyrimidin-4-ylamino)benzo[d]oxazol-2(3H)-one] it was under 500 nM; in that of `Cc1cnc(Nc2ccc(OCC(C)C)cc2)nc1Nc1ccc2oc(=O)[nH]c2c1` [Compound I-196, 5-[2-(4-Isobutoxy-phenylamino)-5-methyl-pyrimidin-4-ylamino]-3H-benzooxazol-2-one], under 500 nM.
For the molecule `Cc1cnc(Nc2cccc(S(=O)(=O)N3CCOCC3)c2)nc1Nc1ccc2oc(=O)[nH]c2c1` [Compound I-30, N4-(benzo[d]oxazol-2(3H)-on-5-yl)-N2-(3-(morpholinosulfonyl)phenyl)-5-methylpyrimidine-2,4-diamine], the IC50 is under 500 nM.
Same read-out and setting: in the case of `Cc1cnc(Nc2ccc(C)c(C(F)(F)F)c2F)nc1Nc1ccc2oc(=O)[nH]c2c1` [Compound I-532, 5-(2-(2-fluoro-4-methyl-3-(trifluoromethyl)phenylamino)-5-methylpyrimidin-4-ylamino)benzo[d]oxazol-2(3H)-one] it was under 500 nM; in that of `Cc1cc(Nc2ncc(F)c(Nc3ccc4oc(=O)[nH]c4c3)n2)cnc1N1CCN(C)CC1` [II-30, N4-(benzoxazolin-2-on-5-yl)-N2-[3-methyl-2-(4-methylpiperazin-1-yl)pyridin-5-yl]-5-fluoropyrimidine-2,4-diamine], under 500 nM.
Same read-out and setting: in the case of `Cc1cnc(Nc2ccc(C(C)NCc3ccccc3)cc2)nc1Nc1ccc2oc(=O)[nH]c2c1` (centres unmarked) [Compound I-206, 5-(2-(4-(1-(benzylamino)ethyl)phenylamino)-5-methylpyrimidin-4-ylamino)benzo[d]oxazol-2(3H)-one] it was under 500 nM.
Still for that read-out and setting: next, `Cc1cnc(Nc2cc(Cl)cc(Cl)c2)nc1Nc1ccc2oc(=O)[nH]c2c1` [Compound I-184, 5-[2-(3,5-Dichloro-phenylamino)-5-methyl-pyrimidin-4-ylamino]-3H-benzooxazol-2-one]: under 500 nM; `Cc1cnc(Nc2ccc3c(c2)[nH]c(=O)n3C)nc1Nc1ccc2oc(=O)[nH]c2c1` [IV-28, 5-(5-methyl-2-(1-methyl-2-oxo-2,3-dihydro-1H-benzo[d]imidazol-5-ylamino)pyrimidin-4-ylamino)benzo[d]oxazol-2(3H)-one]: under 500 nM.
With `COc1cc(Nc2ncc(C)c(Nc3ccc4oc(=O)[nH]c4c3)n2)cc(C(C)O)c1` (centres unmarked) [Compound I-423, 5-(2-(3-(1-hydroxyethyl)-5-methoxyphenylamino)-5-methylpyrimidin-4-ylamino)benzo[d]oxazol-2(3H)-one], the IC50 was under 500 nM.
Still for that read-out and setting: in the case of `COc1cc(Nc2ncc(C)c(Nc3ccc4oc(=O)[nH]c4c3)n2)cc(C(=O)N2CCCC2)c1` [Compound I-253, 5-(2-(3-methoxy-5-(pyrrolidine-1-carbonyl)phenylamino)-5-methylpyrimidin-4-ylamino)benzo[d]oxazol-2(3H)-one] it was over 10000 nM; in that of `CCN(CC)CCNC(=O)c1ccc(Nc2ncc(C)c(Nc3ccc4oc(=O)[nH]c4c3)n2)cc1` [Compound I-127, N-(2-Diethylamino-ethyl)-4-[5-methyl-4-(2-oxo-2,3-dihydro-benzooxazol-5-ylamino)-pyrimidin-2-ylamino]-benzamide], under 500 nM; in that of `Cc1cnc(Nc2cnc(N3CC4CC3CN4CC3CC3)c(F)c2)nc1Nc1ccc2oc(=O)[nH]c2c1` (centres unmarked) [II-54, 5-{2-[6-(5-Cyclopropylmethyl-2,5-diaza-bicyclo[2.2.1]hept-2-yl)-5-fluoro-pyridin-3-ylamino]-5-methyl-pyrimidin-4-ylamino}-3H-benzooxazol-2-one], under 500 nM.
On the same count and under the same terms, in the case of `Cc1cnc(Nc2ccc(N3CCN(C)CC3)nn2)nc1Nc1ccc2oc(=O)[nH]c2c1` [IV-3, N4-(benzo[d]oxazol-2(3H)-on-5-yl)-N2-(6-(4-methylpiperazin-1-yl)pyridazin-3-yl)-5-methylpyrimidine-2,4-diamine] it was over 10000 nM.
Same read-out and setting: in the case of `Cc1cc(Nc2ncc(C)c(Nc3ccc4oc(=O)[nH]c4c3)n2)ccc1-c1cccnc1` [Compound I-483, 5-(5-methyl-2-(3-methyl-4-(pyridin-3-yl)phenylamino)pyrimidin-4-ylamino)benzo[d]oxazol-2(3H)-one formate salt] it was under 500 nM; in that of `Cc1cnc(Nc2ccc(C(=O)Nc3ccccc3)c(C(F)(F)F)c2)nc1Nc1ccc2oc(=O)[nH]c2c1` [Compound I-219, 4-(5-methyl-4-(2-oxo-2,3-dihydrobenzo[d]oxazol-5-ylamino)pyrimidin-2-ylamino)-N-phenyl-2-(trifluoromethyl)benzamide], under 500 nM.
In the case of `COC(=O)N1CCN(c2ccc(Nc3ncc(C)c(Nc4ccc5oc(=O)[nH]c5c4)n3)cn2)CC1` [II-9, N4-(benzo[d]oxazol-2(3H)-on-5-yl)-N2-(6-(4-methoxycarbonylpiperazin-1-yl)pyridin-3-yl)-5-methylpyrimidine-2,4-diamine], the IC50 was under 500 nM.
Still for that read-out and setting: next, `Cc1cnc(Nc2ccc(F)c(OC(F)(F)F)c2)nc1Nc1ccc2oc(=O)[nH]c2c1` [Compound I-163, 5-[2-(4-Fluoro-3-trifluoromethoxy-phenylamino)-5-methyl-pyrimidin-4-ylamino]-3H-benzooxazol-2-one]: under 500 nM.
In the case of `Cc1cnc(Nc2ccc(C(=O)NC3CCC3)c(C(F)(F)F)c2)nc1Nc1ccc2oc(=O)[nH]c2c1` [Compound I-218, N-cyclobutyl-4-(5-methyl-4-(2-oxo-2,3-dihydrobenzo[d]oxazol-5-ylamino)pyrimidin-2-ylamino)-2-(trifluoromethyl)benzamide], the 50% inhibitory concentration (IC50) was under 500 nM.
Turning to `CC(=O)N1Cc2ccc(Nc3ncc(C)c(Nc4ccc5oc(=O)[nH]c5c4)n3)cc2C1` [III-12, 5-[2-(2-Acetyl-2,3-dihydro-1H-isoindol-5-ylamino)-5-methyl-pyrimidin-4-ylamino]-3H-benzooxazol-2-one], the half-maximal inhibitory concentration (IC50) was under 500 nM.
Still for that read-out and setting: in the case of `Cc1cnc(Nc2ccc(N(C)C)nc2)nc1Nc1ccc2oc(=O)[nH]c2c1` [II-1, N4-(benzo[d]oxazol-2(3H)-on-5-yl)-N2-(6-dimethylaminopyridin-3-yl)-5-methylpyrimidine-2,4-diamine] it was under 500 nM; in that of `COc1cc(Nc2ncc(C)c(Nc3ccc4oc(=O)[nH]c4c3)n2)ccc1C(=O)Nc1ccccc1` [Compound I-221, 2-methoxy-4-(5-methyl-4-(2-oxo-2,3-dihydrobenzo[d]oxazol-5-ylamino)pyrimidin-2-ylamino)-N-phenylbenzamide], under 500 nM.

The assay is the same for the next values; noted with them: tested under conditions described in Example 3 (IL-2 stimulated human primary T-cell proliferation); read-out: ability to inhibit JAK3 activity, IC50 range (Table V).
`CC(=O)N1CCN(c2ccc(Nc3ncc(C)c(Nc4ccc5oc(=O)[nH]c5c4)n3)cc2)CC1` [Compound I-343, N2-[4-(4-acetyl)piperazino]phenyl-5-methyl-N4-(2-oxo-2,3-dihydro-1,3-benzoxazol-5-yl)-2,4-pyrimidinediamine]: the IC50 is under 500 nM.
Still for that read-out and setting: in the case of `Cn1c(=O)oc2ccc(Nc3nc(Nc4cccc(NS(C)(=O)=O)c4)ncc3F)cc21` [Compound I-79, N2-((3-methylsulfonylamino)phenyl)-N4-(3-methyl-2-oxo-2,3-dihydrobenzo[d]oxazol-5-yl)-5-fluoropyrimidine-2,4-diamine] it was 500 to 5000 nM; in that of `Cc1cnc(Nc2cc(C)c(OC(F)F)c(C)c2)nc1Nc1ccc2oc(=O)[nH]c2c1` [Compound I-385, N2-(4-difluoromethoxy-3,5-dimethyl)phenyl-5-methyl-N4-(2-oxo-2,3-dihydro-1,3-benzoxazol-5-yl)-2,4-pyrimidinediamine], under 500 nM; in that of `CCOC(=O)N1CCN(c2cccc(Nc3ncc(C)c(Nc4ccc5oc(=O)[nH]c5c4)n3)c2)CC1` [Compound I-346, N2-[3-(4-ethoxycarbonyl)piperazino]phenyl-5-methyl-N4-(2-oxo-2,3-dihydro-1,3-benzoxazol-5-yl)-2,4-pyrimidinediamine], under 500 nM.
With `Cc1cnc(Nc2cccc(S(N)(=O)=O)c2)nc1Nc1ccc2oc(=O)[nH]c2c1` [Compound I-14], the half-maximal inhibitory concentration (IC50) is under 500 nM.
On the same count and under the same terms, in the case of `Cc1cnc(Nc2cccc(S(C)(=O)=O)c2)nc1Nc1ccc2oc(=O)n(C(C)C)c2c1` [Compound I-9, N4-(3-isopropylbenzo[d]oxazol-2(3H)-on-5-yl)-N2-((3-methylsulfonyl)phenyl)-5-methylpyrimidine-2,4-diamine] it was under 500 nM.
Still for that read-out and setting: next, `Cc1cnc(Nc2ccc(-n3cccc3)c(C#N)c2)nc1Nc1ccc2oc(=O)[nH]c2c1` [Compound I-295, N2-[3-cyano-4-(1H-pyrrol-1-yl)]phenyl-5-methyl-N4-(2-oxo-2,3-dihydro-1,3-benzoxazol-5-yl)-2,4-pyrimidinediamine]: under 500 nM; `Cc1cnc(Nc2cccc(OC(C)(C)C(N)=O)c2)nc1Nc1ccc2oc(=O)[nH]c2c1` [Compound I-335, N2-[3-(1-aminocarbonyl-1-methyl)ethoxy]phenyl-5-methyl-N4-(2-oxo-2,3-dihydro-1,3-benzoxazol-5-yl)-2,4-pyrimidinediamine]: under 500 nM; `Cc1cnc(Nc2ccc(N3CCSCC3)c(C#N)c2)nc1Nc1ccc2oc(=O)[nH]c2c1` [Compound I-339, N2-(3-cyano-4-thiomorpholino)phenyl-5-methyl-N4-(2-oxo-2,3-dihydro-1,3-benzoxazol-5-yl)-2,4-pyrimidinediamine]: under 500 nM.
